≈ marks a conversion by molar mass, not a printed value. Where a name gives a salt, the structure may show the parent alone. Read-outs that look alike come from different tables or passages of the source.
Experiments:
[1] = Solubility of Lenalidomide modifications: saturated solutions in three media, HPLC analysis; type: physicochemical
Experimental: As the case for their visual appearance, also the solubility of those different Lenalidomide modifications is quite different.
• Solubilities are determined by preparing saturated solutions in the three media, followed by HPLC-analysis.

[2] = Particle size distribution (d90), Malvern Mastersizer 2000, wet dispersion in cyclohexane; type: physicochemical
Experimental: The D90 value is defined such that 90% by volume of the particles have a particle size smaller than the d90 value and 10% by volume of the particles have a greater particle size greater than the d90 value.
Sample solution. Place 50 mg of well mixed sample to a 100 mL beaker. Add 25 mL of cyclohexane. Using Pasteur pipette transfer small aliquots of sample slurry to the measuring cuvette until the concentration reading is good. The beaker is swirled efficiently before each pipetting.
Measurement according to the operating instructions. Perform three successive determinations, from which calculate the mean value.

[3] = as prepared in reference example 1 (not milled)
[4] = 0.1M hydrochloric acid, pH 1, simulated gastric fluid, thermodynamic from solid, 0.1M HCl, pH 1.0, read-out: Solubility
[5] = acetate buffer, pH 4.5, aqueous buffer, thermodynamic from solid, Acetate buffer, pH 4.5, read-out: Solubility
[6] = phosphate buffer, pH 6.8, aqueous buffer, thermodynamic from solid, Phosphate buffer, pH 6.8, read-out: Solubility

Nc1cccc2c1CN(C1CCC(=O)NC1=O)C2=O (racemic) [Base form A, (RS)-3-(4-Amino-1-oxo 1,3-dihydro-2H-isoindol-2-yl)piperidine-2,6-dione]
Solubility ([1]; 0.1M HCl, pH 1.0): 4760 µg/mL (≈ 18400 µM)
Solubility ([1]; Acetate buffer, pH 4.5): 430 µg/mL (≈ 1660 µM)
Solubility ([1]; Phosphate buffer, pH 6.8): 390 µg/mL (≈ 1500 µM)
PSD, d90 [2, 3]: 219 μm
PSD, d90 ([2]; example 2, after milling 15 min at 20 Hz): 35 μm

Nc1cccc2c1CN(C1CCC(=O)NC1=O)C2=O (racemic) [Base form B, (RS)-3-(4-Amino-1-oxo 1,3-dihydro-2H-isoindol-2-yl)piperidine-2,6-dione]
Solubility [1, 4]: 2740 µg/mL (≈ 10600 µM)
Solubility [1, 5]: 330 µg/mL (≈ 1270 µM)
Solubility [1, 6]: 330 µg/mL (≈ 1270 µM)

Nc1cccc2c1CN(C1CCC(=O)NC1=O)C2=O (stereo not shown) [DMSO solvate]
Solubility [1, 4]: 6330 µg/mL
Solubility [1, 5]: 380 µg/mL
Solubility [1, 6]: 350 µg/mL

Nc1cccc2c1CN(C1CCC(=O)NC1=O)C2=O (stereo not shown) [HCl salt]
Solubility ([1]; 0.1M HCl, pH 1.0): 9000 µg/mL
Solubility relative to base form B ([1]; 0.1M hydrochloric acid at pH1): more than 3 times
Solubility ([1]; Acetate buffer, pH 4.5): 370 µg/mL
Solubility ([1]; Phosphate buffer, pH 6.8): 330 µg/mL
PSD, d90 [2, 3]: 434 μm
PSD, d90 ([2]; example 2, after milling 15 min at 20 Hz, listed as Hydrochloride salt): 43 μm

Nc1cccc2c1CN(C1CCC(=O)NC1=O)C2=O (stereo not shown) [NH4Cl cocrystal]
Solubility ([1]; 0.1M HCl, pH 1.0): 7760 µg/mL
Solubility ([1]; Acetate buffer, pH 4.5): 420 µg/mL
Solubility ([1]; Phosphate buffer, pH 6.8): 360 µg/mL
PSD, d90 [2, 3]: 383 μm
PSD, d90 ([2]; example 2, after milling 15 min at 20 Hz, listed as Ammonium chloride cocrystal): 31 μm

Source: patent US10987344B2, “Pharmaceutical composition capable of the incorporation of lenalidomide in various crystalline modifications” (GRINDEKS, A JOINT STOCK COMPANY, priority 2015, dated 2021)
